Measured values taken from patent US20200385371A1 (Propellon Therapeutics Inc., priority 2017, published 2020).

Assays:
WDR5 [1] = target: T1, WDR5 (Homo sapiens, UniProt P61964); assay: Surface Plasmon Resonance (SPR) assay; format: binding; parameters: Full length WDR5 with an N-terminal His tag and C-terminal AviTag; His tag (N); made in house; host or cells: E. coli; conditions: read-out: SPR Kd
Protocol: Exemplary compounds of the application were dissolved in 100% DMSO at 10 mM, assayed fresh, and then stored at −20° C. for repeat studies and other experiments. Full length WDR5 with an N-terminal His tag and C-terminal AviTag (Avidity Inc.) was expressed in E. coli with coexpression of BirA to biotin label the protein in vivo. Purification was via Ni-NTA.
SPR studies were performed using a Biacore™ T200 instrument (GE Health Sciences Inc.). Biotinylated WDR5 protein (approximately 3000RU) was stably captured to streptavidin coupled SA chips according to the manufacture's protocol (GE Health Sciences Inc.). The running buffer used was HBS-EP (20 mM Hepes pH 7.4, 150 mM NaCl, 3 mM EDTA, 0.05% P-20) plus 5% DMSO with a flow rate of 40 μl/min. For SPR analysis, 5 different concentrations of each exemplary compound of the application were sprayed into 96 or 384 well plates using an HP D300 digital dispenser. The concentration ranged from about 195 nM to about 12 nM in a two-fold series. […] Curve fitting and KD calculations were performed with the Biacore T200 Evalutation software (GE Health Sciences Inc).

MV4-11 cells = assay: Cell proliferation assay (ATPlite); format: cell-based; conditions: Homo sapiens, 120 h; MV4-11 cells, five days; read-out: GI MV411 EC50
Protocol: MV4-11 cells were seeded into a 96-well plate at 1,000 cells/well in 150 μl medium (Alpha-MEM containing 10% FBS, 100 μg/ml Normocin, and 50 μg/ml Gentamycin, Invitrogen). A HP D300 digital dispenser was used to dose cells with DMSO or test compounds across a 10-point range of concentrations (high dose of 10 μM), and cultures were grown in a humidified 5% CO2 incubator at 37° C. After five days, plates were removed from incubator and equilibrated to room temperature. An equal volume of ATPlite assay reagent was added to each well, and samples were processed according to manufacturer's instructions (Perkin Elmer). Luminescent signal was measured using an Envision plate reader equipped with a US-Luminescence detector.

WDR5 [2] = target: T1, WDR5; assay: Fluorescence Polarization (FP) binding assay
Protocol: H3 (1-15) ([…]), and 9-Ala-FAM ((Ac)-[…]-(Ahx-Ahx)-K(5,6-FAM)) (where Ahx represents 6 amino hexanoic acid linkers) peptides for WDR5 were synthesized, N-terminal-labeled with isothiocyanate-fluorescein, and purified by Tufts University Core Services (Boston, Mass.). Compound binding assays were performed at a constant labeled peptide concentration of 30 or 20 nM for H3 (1-15) and 9-Ala-FAM respectively. WDR5 concentrations of 0.3 μM for H3 (1-15) and 0.05 μM for 9-Ala-FAM were used. For both the H3 (1-15) and 9-Ala-FAM peptides, 80 mM sodium phosphate buffer (pH 6.5), 20 mM KCl, and 0.008% Triton X-100 was used. For the H3 (1-15) peptide, FP assays were measured in 10 μl aliquots in 384-well Axygen plates using a Synergy 4 microplate reader (BioTek) with an excitation wavelength of 485 nm and emission wavelength of 528 nm. For the 9-Ala-FAM peptide, FP assays were measured in 125 μl aliquots in 96 well Microfluor plates using a ViewLux instrument (Perkin Elmer) with an excitation wavelength of 480 nm and emission wavelength of 540 nm. To determine Kdsp values, the data were fit to a hyperbolic function using Sigma Plot software (Systat Software). The Kdisp values represent the average of quadruplicate measurements.

SMILES	Kd (WDR5 [1]) [nM]	EC50 (MV4-11 cells) [nM]	IC50 (WDR5 [2]) [nM]
C[C@@H]1CN(c2cc(F)c(-c3cc(C(N)=O)c(F)cc3F)c(F)c2NC(=O)c2c[nH]c(=O)cc2C(F)(F)F)C[C@H](C)N1C [Example 30, N-(5′-carbamoyl-2,2′,4′,6-tetrafluoro-4-((3S,5R)-3,4,5-trimethylpiperazin-1-yl)-[1,1′-biphenyl]-3-yl)-6-oxo-4-(trifluoromethyl)-1,6-dihydropyridine-3-carboxamide]	23.6	18500	85.9
C[C@@H]1CN(c2cc(F)c(-c3cnc(N4CCOCC4)nc3)c(F)c2NC(=O)c2ccc(F)cc2C(F)F)C[C@H](C)N1C [Example 31, N-(2,4-difluoro-3-(2-morpholinopyrimidin-5-yl)-6-((3S,5R)-3,4,5-trimethylpiperazin-1-yl)phenyl)-2-(difluoromethyl)-4-fluorobenzamideformic Acid]	1.04	96.6	19.6
C[C@@H]1CN(c2nccc(-c3c(F)cc(N4CCN(C)[C@@H](C)C4)c(NC(=O)c4ccc(F)cc4C(F)F)c3F)n2)C[C@H](C)O1 [Example 32, 2-(Difluoromethyl)-N-(3-(2-((2S,6R)-2,6-dimethylmorpholino)pyrimidin-4-yl)-6-((S)-3,4-dimethylpiperazin-1-yl)-2,4-difluorophenyl)-4-fluorobenzamide Formic Acid]	5.07	286	33
C[C@@H]1CN(c2ncc(-c3c(F)cc(N4CCN(C)[C@@H](C)C4)c(NC(=O)c4c[nH]c(=O)cc4C(F)F)c3F)cn2)C[C@H](C)O1 [Example 33, 4-(Difluoromethyl)-N-(3-(2-((2S,6R)-2,6-dimethylmorpholino)pyrimidin-5-yl)-6-((S)-3,4-dimethylpiperazin-1-yl)-2,4-difluorophenyl)-6-oxo-1,6-dihydropyridine-3-carboxamide]	0.61	14.5	14.9
CC(C)OC(=O)N1CC=C(c2c(F)cc(N3CCN(C)[C@@H](C)C3)c(NC(=O)c3c[nH]c(=O)cc3C(F)F)c2F)CC1 [Example 34, Isopropyl (S)-4-(3-(4-(difluoromethyl)-6-oxo-1,6-dihydropyridine-3-carboxamido)-4-(3,4-dimethylpiperazin-1-yl)-2,6-difluorophenyl)-3,6-dihydropyridine-1(2H)-carboxylate]	2.02	44.4	22
CC(C)OC(=O)N1CCC=C(c2c(F)cc(N3CCN(C)[C@@H](C)C3)c(NC(=O)c3c[nH]c(=O)cc3C(F)F)c2F)C1 [Example 35, Isopropyl (S)-5-(3-(4-(difluoromethyl)-6-oxo-1,6-dihydropyridine-3-carboxamido)-4-(3,4-dimethylpiperazin-1-yl)-2,6-difluorophenyl)-3,6-dihydropyridine-1(2H)-carboxylate]	6.29	409	29.4
CC(C)OC(=O)N1CC=C(c2c(F)cc(N3CCN(C)[C@@H](C)C3)c(NC(=O)c3c[nH]c(=O)cc3C(F)F)c2F)C1 [Example 36, Isopropyl (S)-3-(3-(4-(difluoromethyl)-6-oxo-1,6-dihydropyridine-3-carboxamido)-4-(3,4-dimethylpiperazin-1-yl)-2,6-difluorophenyl)-2,5-dihydro-H-pyrrole-1-carboxylate]	1.04	54.5	13.2
CC(C)OC(=O)N1CC=C(c2c(F)cc(N3CCN(C)[C@@H](C)C3)c(NC(=O)c3c[nH]c(=O)cc3C(F)(F)F)c2F)C1 [Example 37, Isopropyl (S)-3-(4-(3,4-dimethylpiperazin-1-yl)-2,6-difluoro-3-(6-oxo-4-(trifluoromethyl)-1,6-dihydropyridine-3-carboxamido)phenyl)-2,5-dihydro-1H-pyrrole-1-carboxylate]	2.24	108	16.2
CC(C)OC(=O)N1CCC=C(c2c(F)cc(N3CCN(C)[C@@H](C)C3)c(NC(=O)c3c[nH]c(=O)cc3C(F)(F)F)c2F)C1 [Example 38, Isopropyl (S)-5-(4-(3,4-dimethylpiperazin-1-yl)-2,6-difluoro-3-(6-oxo-4-(trifluoromethyl)-1,6-dihydropyridine-3-carboxamido)phenyl)-3,6-dihydropyridine-1(2H)-carboxylate]	16.4	185	17.4

Next, values leading:

Kd (WDR5 [1]) [nM]	EC50 (MV4-11 cells) [nM]	IC50 (WDR5 [2]) [nM]	SMILES
1.58	35.4	15.2	CC(C)OC(=O)N1CC=C(c2c(F)cc(N3CCN(C)[C@@H](C)C3)c(NC(=O)c3c[nH]c(=O)cc3C(F)(F)F)c2F)CC1 [Example 39, Isopropyl (S)-4-(4-(3,4-dimethylpiperazin-1-yl)-2,6-difluoro-3-(6-oxo-4-(trifluoromethyl)-1,6-dihydropyridine-3-carboxamido)phenyl)-3,6-dihydropyridine-1(2H)-carboxylate]
2.85	286	20.1	C[C@@H]1CN(c2cc(F)c(-c3cnc(N4CCOCC4)nc3)c(F)c2NC(=O)c2cn(C)c(=O)cc2C(F)F)C[C@H](C)N1C [Example 40, N-(2,4-difluoro-3-(2-morpholinopyrimidin-5-yl)-6-((3S,5R)-3,4,5-trimethylpiperazin-1-yl)phenyl)-4-(difluoromethyl)-1-methyl-6-oxo-1,6-dihydropyridine-3-carboxamide]
0.84	48.8	7.1	C[C@@H]1CN(c2cc(F)c(-c3cnc(N4CCOCC4)nc3)c(F)c2NC(=O)c2c[nH]c(=O)cc2C(F)F)C[C@H](C)N1C [Example 41, N-(2,4-difluoro-3-(2-morpholinopyrimidin-5-yl)-6-((3S,5R)-3,4,5-trimethylpiperazin-1-yl)phenyl)-4-(difluoromethyl)-6-oxo-1,6-dihydropyridine-3-carboxamide]
2.38	281	11.2	C[C@H]1CN(c2cc(F)c(C3=CCN(C(=O)OC4CC(F)(F)C4)CC3)c(F)c2NC(=O)c2c[nH]c(=O)cc2C(F)F)CCN1C [Example 42, 3,3-Difluorocyclobutyl (S)-4-(3-(4-(difluoromethyl)-6-oxo-1,6-dihydropyridine-3-carboxamido)-4-(3,4-dimethylpiperazin-1-yl)-2,6-difluorophenyl)-3,6-dihydropyridine-1(2H)-carboxylate]
1.7	653	15.9	C[C@H]1CN(c2cc(F)c(C3=CCCN(C(=O)OC4CC(F)(F)C4)C3)c(F)c2NC(=O)c2c[nH]c(=O)cc2C(F)F)CCN1C [Example 43, 3,3-Difluorocyclobutyl (S)-5-(3-(4-(difluoromethyl)-6-oxo-1,6-dihydropyridine-3-carboxamido)-4-(3,4-dimethylpiperazin-1-yl)-2,6-difluorophenyl)-3,6-dihydropyridine-1(2H)-carboxylate]
2.32	180	14.4	C[C@H]1CN(c2cc(F)c(C3=CCN(C(=O)OC4CC(F)(F)C4)C3)c(F)c2NC(=O)c2c[nH]c(=O)cc2C(F)F)CCN1C [Example 44]
1.32	76.7	12.1	C[C@H]1CN(c2cc(F)c(C3=CCN(C(=O)OC4CC(F)(F)C4)C3)c(F)c2NC(=O)c2c[nH]c(=O)cc2C(F)(F)F)CCN1C [Example 45, 3,3-Difluorocyclobutyl (S)-3-(4-(3,4-dimethylpiperazin-1-yl)-2,6-difluoro-3-(6-oxo-4-(trifluoromethyl)-1,6-dihydropyridine-3-carboxamido)phenyl)-2,5-dihydro-1H-pyrrole-1-carboxylate]
